The source of these data is paper PMC8894010, “Synthesis, Carbonic Anhydrase II/IX/XII Inhibition, DFT, and Molecular Docking Studies of Hydrazide-Sulfonamide Hybrids of 4-Methylsalicyl- and Acyl-Substituted Hydrazide” (BioMed Research International, 2022).

Structures are written as SMILES.

For one series, the target named is CA II (Homo sapiens, UniProt P00918). The experiment in a line: Carbonic anhydrase inhibition assay (p-nitrophenyl acetate hydrolysis, colorimetric, 348 nm).
Another series has as its target CA XII (Homo sapiens, UniProt O43570). The experiment in a line: Carbonic anhydrase inhibition assay (p-nitrophenyl acetate hydrolysis, colorimetric, 348 nm). As to conditions: for CAXII % inhibition: given instead of Ki where inhibition <50%, test compound 10 μL (0.5 mM), b52 says 1.0 mM.
The next series concerns the target T1, CA IX (Homo sapiens, UniProt Q16790).
T1 construct: His-tag; made in house
The description is as above. In kind it is biochemical. Particulars: mean of three independent experiments ± SEM; pH 7.6; read-out: CAIX Ki (μM ± SEM). The protocol: All three isozymes, CA II, CA IX, and CA XII, were produced using the same protocol done for each. Transformation was the first step to be done in which the plasmids and the off-spark plasmids of CA II, CA IX, and CA XII were transformed into competent E. coli bacteria using the heat shock method, cells were grown in agar, then a colony was selected for further growth in LB broth, cells were collected by centrifugation according to the methods described in [25], and the plasmid was extracted according to the kit protocol using SanPrep column plasmid miniprep kit obtained from Sangon Biotech. […] Six hours later, the media were aspirated, and the fresh prepared (+10% FBS and 1% pen/strep) media were added to the cells. On the next day, the cells were inspected for their viability, and new media were used for the selection process which were DMEM, FBS, and hygromycin B using a final concentration of 200 μg/mL. The cells were grown in the selective media, and when they reached 70 to 80% confluency, the offs-park plasmid transfected cells were checked under a fluorescent microscope to insure the production of the protein; then, the cells transfected with the His-tagged plasmid were collected for making the cell lysate following the method described by by centrifugation of the cells at 2000 rpm for 5 minutes, washed with PBS, and again centrifuged; the pellet was then suspended in the cell lysis buffer, incubated in ice for 15 minutes, and centrifuged again at 10000 g at 4°C for 15 minutes, and here, the pellet was discarded and the supernatant was collected for purification using Ni-NTA Sepharose column according to the manufacturer's protocol. And the eluting solution was quantified using the protein quantification technique Biuret assay and Bradford reagent for protein quantification.
Carbonic anhydrase inhibition activity was carried out using an already developed method with slight modification. The principle of the current method is centered on that “CA hydrolyses the p-nitrophenyl acetate to p-nitrophenol” which is determined by spectrophotometrically. Reaction mixture contained 60 μL of 50 mM Tris-sulfate buffer (pH 7.6 containing 0.1 mM ZnCl2) and 10 μL (0.5 mM) test compound in 1% DMSO. […] Preparation of p-nitrophenyl acetate was done by taking 6 mM stock using <5% acetonitrile in buffer and was used fresh. Each well was filled with 20 μL solution to attain […] concentration. The total reaction volume was made to 100 μL.

Sequence of CA XII (O43570 25-354): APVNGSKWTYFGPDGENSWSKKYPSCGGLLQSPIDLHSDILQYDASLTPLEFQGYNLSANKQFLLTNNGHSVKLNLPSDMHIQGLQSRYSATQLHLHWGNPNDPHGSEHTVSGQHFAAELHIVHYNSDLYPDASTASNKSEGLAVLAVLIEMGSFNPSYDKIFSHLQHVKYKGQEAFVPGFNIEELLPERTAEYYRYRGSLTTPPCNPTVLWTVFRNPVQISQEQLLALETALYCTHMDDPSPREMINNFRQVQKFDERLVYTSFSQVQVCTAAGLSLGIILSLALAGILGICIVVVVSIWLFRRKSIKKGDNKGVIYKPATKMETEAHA
Description for CA II: (§1) Carbonic anhydrase inhibition activity was carried out using an already developed method [19] with slight modification. The principle of the current method is centered on that “CA hydrolyses the p-nitrophenyl acetate to p-nitrophenol” which is determined by spectrophotometrically. Reaction mixture contained 60 μL of 50 mM Tris-sulfate buffer (pH 7.6 containing 0.1 mM ZnCl2) and 10 μL (0.5 mM) test compound in 1% DMSO. […] Preparation of p-nitrophenyl acetate was done by taking 6 mM stock using <5% acetonitrile in buffer and was used fresh. Each well was filled with 20 μL solution to attain 0.6 mM concentration. The total reaction volume was made to 100 μL.
Description for CA XII: as §1

As usually defined, the Ki is a measure of affinity in units of concentration, obtained from inhibition or displacement. Broadly, the melting point is the temperature of the solid-liquid transition. The compound `Cc1ccc(CC(=O)NNS(=O)(=O)c2ccc([N+](=O)[O-])cc2)cc1` [Compound 28, 4-Nitro-N′-(2-(p-tolyl)acetyl)benzenesulfonohydrazide] yielded a melting point of 205 to 206 °C. The compound also had a Ki on CA II of 460 ± 10 nM. Further, the Ki at CA XII is 1020 ± 80 nM. Further, the Ki on CA IX was found to be 0.55 ± 0.01 µM.

Turning to `Cc1ccc(C(=O)NNS(=O)(=O)c2ccc(Br)cc2)c(O)c1` [Compound 25, 4-Bromo-N′-(2-hydroxy-4-methylbenzoyl)benzenesulfonohydrazide], the Ki was determined as 910 ± 20 nM at CA II, 350 ± 40 nM on CA XII and 0.33 ± 0.03 µM at CA IX.

`COc1ccc(S(=O)(=O)NNC(=O)Cc2ccc(C)cc2)cc1` [Compound 30, 4-Methoxy-N′-(2-(p-tolyl)acetyl)benzenesulfonohydrazide]: the melting point was in the range of 133 to 134 °C. Besides, the affinity at CA II, expressed as Ki, was 740 ± 40 nM. The Ki on CA XII was 130 ± 10 nM. Also, on CA IX, the Ki worked out at 0.33 ± 0.03 µM.

In turn, `COc1ccc(S(=O)(=O)NNC(=O)c2ccc(C)cc2OC)cc1` [Compound 21, 4-Methoxy-N′-(2-methoxy-4-methylbenzoyl)benzenesulfono hydrazide] yielded a melting point of 159 to 162 °C. Further, the Ki on CA II is 610 ± 10 nM. Moreover, the inhibitory constant (Ki) on CA XII came out at 1220 ± 10 nM. Further, the Ki at CA IX was 0.19 ± 0.02 µM.

In turn, `COc1cc(C)ccc1C(=O)NNS(=O)(=O)c1ccc(C)cc1` [Compound 22, N′-(2-Methoxy-4-methylbenzoyl)-4-methylbenzenesulfonohydrazide] registered a melting point of 161 to 163 °C. This compound returned a Ki at CA II of 680 ± 10 nM. For the same compound, on CA XII, the CAXII % inhibition stood at 42.89%. Besides, on CA IX, the Ki stood at 1.04 ± 0.38 µM.

In turn, `Cc1ccc(C(=O)NNS(=O)(=O)c2ccc([N+](=O)[O-])cc2)c(O)c1` [Compound 24, N′-(2-Hydroxy-4-methylbenzoyl)-4-nitrobenzenesulfonohydrazide] yielded a melting point of 211 to 213 °C. This compound showed a Ki on CA II of 340 ± 10 nM. Further, at CA XII, the Ki stood at 520 ± 40 nM. Besides, on CA IX, the Ki came out at 0.54 ± 0.06 µM.

In turn, `Cc1ccc(CC(=O)NNS(=O)(=O)c2ccc(C)cc2)cc1` [Compound 31, 4-Methyl-N′-(2-(p-tolyl)acetyl)benzenesulfonohydrazide] came in with a melting point of 143 to 144 °C. The same compound had a Ki at CA II of 670 ± 10 nM. The compound further showed a Ki at CA XII of 400 ± 90 nM. Also, on CA IX, the Ki is 0.29 ± 0.02 µM.

Take `COc1cccc(CC(=O)NNS(=O)(=O)c2ccc3ccccc3c2)c1` [Compound 36, N′-(2-(3-Methoxyphenyl)acetyl)naphthalene-2-sulfonohydrazide]: the melting point was in the range of 139 to 141 °C. At CA II, this compound returned a Ki of 920 ± 100 nM. In addition, at CA XII, the CAXII % inhibition came out at 48.88%. For the same compound, the Ki on CA IX is 0.6 ± 0.01 µM.

Consider `COc1ccc(S(=O)(=O)NNC(=O)c2ccc(C)cc2O)cc1` [Compound 26, N′-(2-Hydroxy-4-methylbenzoyl)-4-methoxybenzenesulfono hydrazide], for which the melting point was in the range of 168 to 169 °C. The same compound had a Ki at CA II of 960 ± 90 nM. Also, the Ki on CA XII came out at 580 ± 40 nM. For the same compound, the Ki on CA IX was 0.91 ± 0.09 µM.

`COc1cc(C)ccc1C(=O)NNS(=O)(=O)c1ccc(Br)cc1` [Compound 20, 4-Bromo-N′-(2-methoxy-4-methylbenzoyl)benzenesulfonohydrazide] returned a melting point of 168 to 169 °C. The compound further showed a Ki on CA II of 660 ± 40 nM. On CA XII, this compound had a Ki of 990 ± 100 nM. For the same compound, on CA IX, the Ki stood at 0.56 ± 0.05 µM.

Regarding `COc1cc(C)ccc1C(=O)NNS(=O)(=O)c1ccc2ccccc2c1` [Compound 23, N′-(2-Methoxy-4-methylbenzoyl)naphthalene-2-sulfonohydrazide], the melting point was in the range of 186 to 187 °C. For the same compound, at CA II, the Ki came to 940 ± 20 nM. The same compound had a Ki at CA XII of 750 ± 70 nM. Besides, on CA IX, the Ki was 0.19 ± 0.03 µM.

With `COc1cccc(CC(=O)NNS(=O)(=O)c2ccc(C)cc2)c1` [Compound 35, N′-(2-(3-Methoxyphenyl)acetyl)-4-methylbenzenesulfonohydrazide], the melting point was in the range of 143 to 144 °C. On CA II, this compound yielded a Ki of 3200 ± 140 nM. In addition, the Ki at CA XII worked out at 340 ± 10 nM. In addition, the Ki on CA IX was 1.18 ± 0.04 µM.

In the case of `COc1cccc(CC(=O)NNS(=O)(=O)c2ccc([N+](=O)[O-])cc2)c1` [Compound 32, N′-(2-(3-Methoxyphenyl)acetyl)-4-nitrobenzenesulfonohydrazide], the melting point is 158 to 159 °C. The compound further had a Ki on CA II of 670 ± 60 nM. For the same compound, the CAXII % inhibition on CA XII worked out at 49.25%. The Ki on CA IX was 0.32 ± 0.01 µM.

Regarding `Cc1ccc(CC(=O)NNS(=O)(=O)c2ccc(Br)cc2)cc1` [Compound 29, 4-Bromo-N′-(2-(p-tolyl)acetyl)benzenesulfonohydrazide], the melting point fell in the range of 156 to 157 °C. Moreover, on CA II, the Ki was 730 ± 20 nM. At CA XII, this compound came in with a Ki of 550 ± 10 nM. Moreover, on CA IX, the Ki is 0.33 ± 0.02 µM.

Take `COc1cc(C)ccc1C(=O)NNS(=O)(=O)c1ccc([N+](=O)[O-])cc1` [Compound 19, N′-(2-Methoxy-4-methylbenzoyl)-4-nitrobenzenesulfonohydrazide]: the melting point was 220 to 222 °C. The compound further displayed a Ki at CA II of 680 ± 20 nM. The compound further displayed a CAXII % inhibition at CA XII of 44.4%. For the same compound, the Ki on CA IX was found to be 0.58 ± 0.04 µM.

The compound `Cc1ccc(S(=O)(=O)NNC(=O)c2ccc(C)cc2O)cc1` [Compound 27, N′-(2-Hydroxy-4-methylbenzoyl)-4-methylbenzenesulfonohydrazide] gave a melting point of 183 to 185 °C. Besides, the inhibition constant Ki on CA II was 1110 ± 40 nM. Further, on CA XII, the Ki stood at 430 ± 80 nM. Moreover, at CA IX, the Ki came to 0.51 ± 0.04 µM.

In turn, `COc1ccc(S(=O)(=O)NNC(=O)Cc2cccc(OC)c2)cc1` [Compound 34, 4-Methoxy-N′-(2-(3-methoxyphenyl)acetyl)benzenesulfonohydrazide] registered a melting point of 146 to 147 °C. For the same compound, affinity on CA II was put at a Ki of 1810 ± 30 nM. Further, at CA XII, the affinity corresponds to a Ki of 220 ± 60 nM. Moreover, at CA IX, the Ki was determined as 0.65 ± 0.03 µM.

For the compound `COc1cccc(CC(=O)NNS(=O)(=O)c2ccc(Br)cc2)c1` [Compound 33, 4-Bromo-N′-(2-(3-methoxyphenyl)acetyl)benzenesulfonohydrazide], the melting point is 153 to 154 °C. The compound further gave an inhibitory constant (Ki) on CA II of 680 ± 50 nM. Further, at CA XII, the Ki came to 170 ± 10 nM. Besides, at CA IX, the Ki was found to be 0.39 ± 0.03 µM.
